Tests used:
[1] = tested on: A498; test: Growth inhibition of human A498 cells assessed as cell growth at 0.1 uM incubated for 48 hrs by sulforhodamine B assay relative to control; type: functional; conditions: A498, 48 h, read-out: Activity
[2] = tested on: U-251; test: Growth inhibition of human U251 cells assessed as cell growth at 0.01 uM incubated for 48 hrs by sulforhodamine B assay relative to control; type: functional; conditions: U-251, 48 h, read-out: Activity
[3] = tested on: ACHN; test: Growth inhibition of human ACHN cells assessed as cell growth at 100 uM incubated for 48 hrs by sulforhodamine B assay relative to control; type: functional; conditions: read-out: Activity
[4] = tested on: SF-539; test: Growth inhibition of human SF539 cells assessed as cell growth at 0.1 uM incubated for 48 hrs by sulforhodamine B assay relative to control; type: functional; conditions: SF-539, 48 h, read-out: Activity
[5] = tested on: NCI-H460; test: Growth inhibition of human NCI-H460 cells assessed as cell growth at 1 uM incubated for 48 hrs by sulforhodamine B assay relative to control; type: functional; conditions: NCI-H460, 48 h, read-out: Activity
[6] = tested on: KM12; test: Growth inhibition of human KM12 cells assessed as cell growth at 100 uM incubated for 48 hrs by sulforhodamine B assay relative to control; type: functional; conditions: KM12, 48 h, read-out: Activity
[7] = tested on: HCT-15; test: Growth inhibition of human HCT15 cells assessed as cell growth at 0.01 uM incubated for 48 hrs by sulforhodamine B assay relative to control; type: functional; conditions: HCT-15, 48 h, read-out: Activity
[8] = tested on: MDA-MB-435; test: Growth inhibition of human MDA-MB-435 cells assessed as cell growth at 0.1 uM incubated for 48 hrs by sulforhodamine B assay relative to control; type: functional; conditions: MDA-MB-435, 48 h, read-out: Activity
[9] = tested on: BT-549; test: Growth inhibition of human BT549 cells assessed as cell growth at 100 uM incubated for 48 hrs by sulforhodamine B assay relative to control; type: functional; conditions: BT-549, 48 h, read-out: Activity
[10] = tested on: SR; test: Growth inhibition of human SR cells assessed as cell growth at 0.1 uM incubated for 48 hrs by sulforhodamine B assay relative to control; type: functional; conditions: read-out: Activity
[11] = tested on: OVCAR-8; test: Growth inhibition of human OVCAR8 cells incubated for 48 hrs by sulforhodamine B assay; type: functional, cell-based; conditions: OVCAR-8, 48 h
[12] = tested on: RPMI-8226; test: Growth inhibition of human RPMI8226 cells incubated for 48 hrs by sulforhodamine B assay; type: functional, cell-based; conditions: RPMI-8226, 48 h
[13] = tested on: NCI/ADR-RES; test: Growth inhibition of human NCI/ADR-RES cells incubated for 48 hrs by sulforhodamine B assay; type: functional, cell-based
[14] = tested on: MOLT-4; test: Growth inhibition of human MOLT4 cells assessed as cell growth at 0.1 uM incubated for 48 hrs by sulforhodamine B assay relative to control; type: functional; conditions: MOLT-4, 48 h, read-out: Activity
[15] = tested on: T47D; test: Growth inhibition of human T47D cells assessed as cell growth at 100 uM incubated for 48 hrs by sulforhodamine B assay relative to control; type: functional; conditions: read-out: Activity
[16] = tested on: UO-31; test: Growth inhibition of human UO31 cells assessed as cell growth at 0.01 uM incubated for 48 hrs by sulforhodamine B assay relative to control; type: functional; conditions: UO-31, 48 h, read-out: Activity
[17] = tested on: SK-MEL-28; test: Growth inhibition of human SK-MEL-28 cells assessed as cell growth at 0.01 uM incubated for 48 hrs by sulforhodamine B assay relative to control; type: functional; conditions: SK-MEL-28, 48 h, read-out: Activity
[18] = tested on: M14; test: Growth inhibition of human M14 cells assessed as cell growth at 1 uM incubated for 48 hrs by sulforhodamine B assay relative to control; type: functional; conditions: M14, 48 h, read-out: Activity
[19] = tested on: U-251; test: Growth inhibition of human U251 cells assessed as cell growth at 1 uM incubated for 48 hrs by sulforhodamine B assay relative to control; type: functional; conditions: U-251, 48 h, read-out: Activity
[20] = tested on: HCT-15; test: Growth inhibition of human HCT15 cells assessed as cell growth at 1 uM incubated for 48 hrs by sulforhodamine B assay relative to control; type: functional; conditions: HCT-15, 48 h, read-out: Activity
[21] = tested on: NCI-H522; test: Growth inhibition of human NCI-H522 cells incubated for 48 hrs by sulforhodamine B assay; type: functional, cell-based; conditions: NCI-H522, 48 h
[22] = tested on: NCI/ADR-RES; test: Growth inhibition of human NCI/ADR-RES cells assessed as cell growth at 0.01 uM incubated for 48 hrs by sulforhodamine B assay relative to control; type: functional; conditions: read-out: Activity
[23] = tested on: Malme-3M; test: Growth inhibition of human MALME-3M cells incubated for 48 hrs by sulforhodamine B assay; type: functional, cell-based
[24] = tested on: BT-549; test: Growth inhibition of human BT549 cells assessed as cell growth at 1 uM incubated for 48 hrs by sulforhodamine B assay relative to control; type: functional; conditions: BT-549, 48 h, read-out: Activity
[25] = tested on: SW-620; test: Growth inhibition of human SW620 cells assessed as cell growth at 100 uM incubated for 48 hrs by sulforhodamine B assay relative to control; type: functional; conditions: SW-620, 48 h, read-out: Activity
[26] = tested on: Hs-578T; test: Growth inhibition of human Hs578T cells assessed as cell growth at 0.01 uM incubated for 48 hrs by sulforhodamine B assay relative to control; type: functional; conditions: read-out: Activity
[27] = tested on: HCT-116; test: Growth inhibition of human HCT116 cells assessed as cell growth at 1 uM incubated for 48 hrs by sulforhodamine B assay relative to control; type: functional; conditions: HCT-116, 48 h, read-out: Activity
[28] = tested on: NCI-H460; test: Growth inhibition of human NCI-H460 cells assessed as cell growth at 0.01 uM incubated for 48 hrs by sulforhodamine B assay relative to control; type: functional; conditions: NCI-H460, 48 h, read-out: Activity
[29] = tested on: CAKI-1; test: Growth inhibition of human Caki1 cells assessed as cell growth at 100 uM incubated for 48 hrs by sulforhodamine B assay relative to control; type: functional; conditions: CAKI-1, 48 h, read-out: Activity
[30] = tested on: SW-620; test: Growth inhibition of human SW620 cells assessed as cell growth at 1 uM incubated for 48 hrs by sulforhodamine B assay relative to control; type: functional; conditions: SW-620, 48 h, read-out: Activity
[31] = tested on: CAKI-1; test: Growth inhibition of human Caki1 cells assessed as cell growth at 0.01 uM incubated for 48 hrs by sulforhodamine B assay relative to control; type: functional; conditions: CAKI-1, 48 h, read-out: Activity
[32] = tested on: HCT-116; test: Growth inhibition of human HCT116 cells assessed as cell growth at 100 uM incubated for 48 hrs by sulforhodamine B assay relative to control; type: functional; conditions: HCT-116, 48 h, read-out: Activity
[33] = read-out: pLC50 (the source's name) (converted)
[34] = read-out: LC50 (the source's name)

COc1cc(Cl)cc(-c2nn(-c3cccc(NC(=O)Nc4cc(C(F)(F)F)cc(C(F)(F)F)c4)c3)cc2-c2ccncc2)c1
growth at 0.1 µM [1]: 69% | growth at 0.01 µM [2]: 96% | growth at 100 µM [3]: -38% | growth at 0.1 µM [4]: 102% | growth at 1 µM [5]: 13% | growth at 100 µM [6]: -83% | growth at 0.01 µM [7]: 93% | growth at 0.1 µM [8]: 98% | growth at 100 µM [9]: -80% | growth at 0.1 µM [10]: 92% | IC50 [11]: 0.39 µM | GI50 ([11]; read-out: GI50): 0.391 µM | TGI ([11]; read-out: TGI): 2.19 µM | GI50 ([11]; read-out: pGI50 (converted)): 0.389 µM | CC50 [11, 33]: 47.9 µM | TGI ([11]; read-out: pTGI (converted)): 2.19 µM | IC50 [12]: 0.24 µM | GI50 ([12]; read-out: GI50): 0.238 µM | CC50 [12, 34]: > 100 µM | TGI ([12]; read-out: TGI): 0.76 µM | GI50 ([12]; read-out: pGI50 (converted)): 0.234 µM | CC50 [12, 33]: > 100 µM | TGI ([12]; read-out: pTGI (converted)): 0.759 µM | IC50 [13]: 0.82 µM | GI50 ([13]; read-out: GI50): 0.815 µM | CC50 [13, 34]: > 100 µM | TGI ([13]; read-out: TGI): 9.98 µM | GI50 ([13]; read-out: pGI50 (converted)): 0.813 µM | CC50 [13, 33]: > 100 µM | TGI ([13]; read-out: pTGI (converted)): 10 µM | growth at 0.1 µM [14]: 87% | growth at 100 µM [15]: -22% | growth at 0.01 µM [16]: 79% | growth at 0.01 µM [17]: 103% | growth at 1 µM [18]: 25% | growth at 1 µM [19]: 11% | growth at 1 µM [20]: 17% | IC50 [21]: 0.35 µM | GI50 ([21]; read-out: GI50): 0.353 µM | TGI ([21]; read-out: TGI): 1.76 µM | GI50 ([21]; read-out: pGI50 (converted)): 0.355 µM | CC50 [21, 33]: 8.91 µM | TGI ([21]; read-out: pTGI (converted)): 1.78 µM | growth at 0.01 µM [22]: 99% | IC50 [23]: 0.53 µM | GI50 ([23]; read-out: GI50): 0.53 µM | CC50 [23, 34]: > 100 µM | TGI ([23]; read-out: TGI): 3.57 µM | GI50 ([23]; read-out: pGI50 (converted)): 0.537 µM | CC50 [23, 33]: > 100 µM | TGI ([23]; read-out: pTGI (converted)): 3.55 µM | growth at 1 µM [24]: 54% | growth at 100 µM [25]: -72% | growth at 0.01 µM [26]: 97% | growth at 1 µM [27]: 7% | growth at 0.01 µM [28]: 101% | growth at 100 µM [29]: -61% | growth at 1 µM [30]: 19% | growth at 0.01 µM [31]: 97% | growth at 100 µM [32]: -88%
